# Reference: ChEMBL document CHEMBL5223150, “Targeting the PI3K/AKT/mTOR Signaling Pathway in the Treatment of Human Diseases: Current Status, Trends, and Solutions” (J Med Chem, 2022)
# Assay: Metabolic stability in human liver microsomes assessed as compound remaining after 1 hr
# Type: ADME, Microsome
# Details: read-out: Stability
compound,measurement,value
O=C(N1CCN(c2ncnc3[nH]nc(Cl)c23)CC1)C1(c2ccc(Cl)c(Cl)c2)CCNCC1,remaining at 1 h,80%
